Our source for the EC50 values is US20160271263A1 (Novo Nordisk A/S, priority 2010, published 2016).

pEC50: −log10 of the molar value. Numbered stars: 1 amine (or outer) side, 2 acyl side, 3 side chain; on linkers, the order of the positions; unused ones are H or OH. Side chains are listed from the residue outwards. Peptide text beside a SMILES is read from it. * marks the point of attachment. C18 diacid = O=C(O)CCCCCCCCCCCCCCCCC(=O)*; γGlu = O=C(O)[C@H](CCC(=O)[*:2])N[*:1]; AEEA = NCCOCCOCC(=O)O

The target in the assay is glucagon receptor (Homo sapiens, UniProt P47871). Briefly: cell-based.
glucagon receptor, sequence (P47871 26-477): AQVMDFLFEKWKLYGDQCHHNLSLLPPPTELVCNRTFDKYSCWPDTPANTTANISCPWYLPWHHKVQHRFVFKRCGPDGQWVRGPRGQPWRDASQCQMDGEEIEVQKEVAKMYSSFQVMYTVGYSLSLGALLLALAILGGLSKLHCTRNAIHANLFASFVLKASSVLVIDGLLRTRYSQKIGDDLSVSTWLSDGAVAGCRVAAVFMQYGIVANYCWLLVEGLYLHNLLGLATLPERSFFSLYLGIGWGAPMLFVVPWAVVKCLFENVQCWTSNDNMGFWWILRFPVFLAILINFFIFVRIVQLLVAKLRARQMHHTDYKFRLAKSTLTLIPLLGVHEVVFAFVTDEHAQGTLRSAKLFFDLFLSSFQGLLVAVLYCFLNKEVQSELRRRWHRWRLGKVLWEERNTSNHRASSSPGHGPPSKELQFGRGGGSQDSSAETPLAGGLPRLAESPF
One may read the pEC50 as the EC50 on a negative log10 scale, so that one unit is a factor of ten. Read a low pEC50 as a large EC50. `CC(C)C[C@H](NC(=O)[C@H](Cc1ccc(O)cc1)NC(=O)[C@H](CCCCN)NC(=O)[C@H](CO)NC(=O)[C@H](Cc1ccc(O)cc1)NC(=O)[C@H](CC(=O)O)NC(=O)[C@H](CO)NC(=O)[C@@H](NC(=O)[C@H](Cc1ccccc1)NC(=O)[C@@H](NC(=O)CNC(=O)[C@H](CCC(N)=O)NC(=O)[C@H](CO)NC(=O)[C@@H](N)Cc1c[nH]cn1)[C@@H](C)O)[C@@H](C)O)C(=O)N[C@@H](CC(=O)O)C(=O)N[C@@H](CCCCNC(=O)CC[C@H](NC(=O)COCCOCCNC(=O)COCCOCCNC(=O)CC[C@H](NC(=O)CC[C@H](NC(=O)CCCCCCCCCCCCCCCCC(=O)O)C(=O)O)C(=O)O)C(=O)O)C(=O)N[C@@H](CCCNC(=N)N)C(=O)N[C@@H](CCCNC(=N)N)C(=O)N[C@@H](C)C(=O)N[C@@H](CCC(N)=O)C(=O)N[C@@H](CC(=O)O)C(=O)N[C@@H](Cc1ccccc1)C(=O)N[C@H](C(=O)N[C@@H](CCC(N)=O)C(=O)N[C@@H](Cc1c[nH]c2ccccc12)C(=O)N[C@@H](CC(C)C)C(=O)N[C@@H](CC(C)C)C(=O)N[C@@H](CC(N)=O)C(=O)N[C@H](C(=O)O)[C@@H](C)O)C(C)C` [Example 78, N^ε16-[(4S)-4-carboxy-4-[[2-[2-[2-[[2-[2-[2-[[(4S)-4-carboxy-4-[[(4S)-4-carboxy-4-(17-carboxyheptadecanoylamino)butanoyl]amino]butanoyl]amino]ethoxy]ethoxy]acetyl]amino]ethoxy]ethoxy]acetyl]amino]butanoyl]-[Lys^16,Leu^27]-Glucagon] (H-HSQGTFTSDYSKYLDK([γGlu-AEEA-AEEA-γGlu-γGlu-C18 diacid])RRAQDFVQWLLNT-OH; N-terminus and C-terminus assumed) gave a pEC50 of 9.91.
The figure for `CC(C)C[C@H](NC(=O)[C@H](Cc1ccc(O)cc1)NC(=O)[C@H](CCCCN)NC(=O)[C@H](CO)NC(=O)[C@H](Cc1ccc(O)cc1)NC(=O)[C@H](CC(=O)O)NC(=O)[C@H](CO)NC(=O)[C@@H](NC(=O)[C@H](Cc1ccccc1)NC(=O)[C@@H](NC(=O)CNC(=O)[C@H](CCC(N)=O)NC(=O)[C@H](CO)NC(=O)[C@@H](N)Cc1c[nH]cn1)[C@@H](C)O)[C@@H](C)O)C(=O)N[C@@H](CC(=O)O)C(=O)N[C@@H](CO)C(=O)N[C@@H](CCCNC(=N)N)C(=O)N[C@@H](CCCNC(=N)N)C(=O)N[C@@H](C)C(=O)N[C@@H](CCC(N)=O)C(=O)N[C@@H](CC(=O)O)C(=O)N[C@@H](Cc1ccccc1)C(=O)N[C@H](C(=O)N[C@@H](CCC(N)=O)C(=O)N[C@@H](Cc1c[nH]c2ccccc12)C(=O)N[C@@H](CC(C)C)C(=O)N[C@@H](CC(C)C)C(=O)N[C@@H](CCCCNC(=O)CC[C@H](NC(=O)CC[C@H](NC(=O)CC[C@H](NC(=O)CCCCCCCCCCCCCCCCC(=O)O)C(=O)O)C(=O)O)C(=O)O)C(=O)N[C@H](C(=O)O)[C@@H](C)O)C(C)C` [Example 79, N^ε28-[(4S)-4-carboxy-4-[[(4S)-4-carboxy-4-[[(4S)-4-carboxy-4-(17-carboxyheptadecanoylamino)butanoyl]amino]butanoyl]amino]butanoyl]-[Leu^27,Lys^28]-Glucagon] is 9.85; for `CC(C)C[C@H](NC(=O)[C@H](Cc1ccc(O)cc1)NC(=O)[C@H](CCCCNC(=O)CC[C@H](NC(=O)CC[C@H](NC(=O)COCCOCCNC(=O)COCCOCCNC(=O)CC[C@H](NC(=O)CCCCCCCCCCCCCCCCC(=O)O)C(=O)O)C(=O)O)C(=O)O)NC(=O)[C@H](CO)NC(=O)[C@H](Cc1ccc(O)cc1)NC(=O)[C@H](CC(=O)O)NC(=O)[C@H](CO)NC(=O)[C@@H](NC(=O)[C@H](Cc1ccccc1)NC(=O)[C@@H](NC(=O)CNC(=O)[C@H](CCC(N)=O)NC(=O)[C@H](CO)NC(=O)[C@@H](N)Cc1c[nH]cn1)[C@@H](C)O)[C@@H](C)O)C(=O)N[C@@H](CC(=O)O)C(=O)N[C@@H](CO)C(=O)N[C@@H](CCCNC(=N)N)C(=O)N[C@@H](CCCNC(=N)N)C(=O)N[C@@H](C)C(=O)N[C@@H](CCC(N)=O)C(=O)N[C@@H](CC(=O)O)C(=O)N[C@@H](Cc1ccccc1)C(=O)N[C@H](C(=O)N[C@@H](CCC(N)=O)C(=O)N[C@@H](Cc1c[nH]c2ccccc12)C(=O)N[C@@H](CC(C)C)C(=O)N[C@@H](CC(C)C)C(=O)N[C@@H](CC(N)=O)C(=O)N1CCC[C@H]1C(=O)O)C(C)C` [Example 80, N^ε12-[(4S)-4-carboxy-4-[[(4S)-4-carboxy-4-[[2-[2-[2-[[2-[2-[2-[[(4S)-4-carboxy-4-(17-carboxyheptadecanoylamino)butanoyl]amino]ethoxy]ethoxy]acetyl]amino]ethoxy]ethoxy]acetyl]amino]butanoyl]amino]butanoyl]-[Leu^27,Pro^29]-Glucagon] it is 8.80.
Next, `CC(C)C[C@H](NC(=O)[C@H](Cc1ccc(O)cc1)NC(=O)[C@H](CCCCN)NC(=O)[C@H](CO)NC(=O)[C@H](Cc1ccc(O)cc1)NC(=O)[C@H](CC(=O)O)NC(=O)[C@H](CO)NC(=O)[C@@H](NC(=O)[C@H](Cc1ccccc1)NC(=O)[C@@H](NC(=O)CNC(=O)[C@H](CCC(N)=O)NC(=O)[C@H](CO)NC(=O)[C@@H](N)Cc1c[nH]cn1)[C@@H](C)O)[C@@H](C)O)C(=O)N[C@@H](CC(=O)O)C(=O)N[C@@H](CO)C(=O)N[C@@H](CCCNC(=N)N)C(=O)N[C@@H](CCCNC(=N)N)C(=O)N[C@@H](C)C(=O)N[C@@H](CCC(N)=O)C(=O)N[C@@H](CC(=O)O)C(=O)N[C@@H](Cc1ccccc1)C(=O)N[C@H](C(=O)N[C@@H](CCCCNC(=O)CC[C@H](NC(=O)CC[C@H](NC(=O)COCCOCCNC(=O)COCCOCCNC(=O)CC[C@H](NC(=O)CCCCCCCCCCCCCCCCC(=O)O)C(=O)O)C(=O)O)C(=O)O)C(=O)N[C@@H](Cc1c[nH]c2ccccc12)C(=O)N[C@@H](CC(C)C)C(=O)N[C@@H](CC(C)C)C(=O)N[C@@H](CC(N)=O)C(=O)N1CCC[C@H]1C(=O)O)C(C)C` [Example 81, N^ε24-[(4S)-4-carboxy-4-[[(4S)-4-carboxy-4-[[2-[2-[2-[[2-[2-[2-[[(4S)-4-carboxy-4-(17-carboxyheptadecanoylamino)butanoyl]amino]ethoxy]ethoxy]acetyl]amino]ethoxy]ethoxy]acetyl]amino]butanoyl]amino]butanoyl]-[Lys^24,Leu^27,Pro^29]-Glucagon]: 9.81.
The figure for `CC(C)C[C@H](NC(=O)[C@H](Cc1ccc(O)cc1)NC(=O)[C@H](CCCCN)NC(=O)[C@H](CO)NC(=O)[C@H](Cc1ccc(O)cc1)NC(=O)[C@H](CC(=O)O)NC(=O)[C@H](CO)NC(=O)[C@@H](NC(=O)[C@H](Cc1ccccc1)NC(=O)[C@@H](NC(=O)CNC(=O)[C@H](CCC(N)=O)NC(=O)[C@H](CO)NC(=O)[C@@H](N)Cc1c[nH]cn1)[C@@H](C)O)[C@@H](C)O)C(=O)N[C@@H](CC(=O)O)C(=O)N[C@@H](CO)C(=O)N[C@@H](CCCNC(=N)N)C(=O)N[C@@H](CCCNC(=N)N)C(=O)N[C@@H](C)C(=O)N[C@@H](CCC(N)=O)C(=O)N[C@@H](CC(=O)O)C(=O)N[C@@H](Cc1ccccc1)C(=O)N[C@H](C(=O)N[C@@H](CCC(N)=O)C(=O)N[C@@H](Cc1c[nH]c2ccccc12)C(=O)N[C@@H](CC(C)C)C(=O)N[C@@H](CC(C)C)C(=O)N[C@@H](CCCCNC(=O)CC[C@H](NC(=O)CC[C@H](NC(=O)COCCOCCNC(=O)COCCOCCNC(=O)CC[C@H](NC(=O)CCCCCCCCCCCCCCCCC(=O)O)C(=O)O)C(=O)O)C(=O)O)C(=O)N[C@H](C(=O)N1CCC[C@H]1C(=O)O)[C@@H](C)O)C(C)C` [Example 82, N^ε28-[(4S)-4-carboxy-4-[[(4S)-4-carboxy-4-[[2-[2-[2-[[2-[2-[2-[[(4S)-4-carboxy-4-(17-carboxyheptadecanoylamino)butanoyl]amino]ethoxy]ethoxy]acetyl]amino]ethoxy]ethoxy]acetyl]amino]butanoyl]amino]butanoyl]-[Leu^27,Lys^28]-Glucagonyl-Pro] is 9.89.
Turning to `CC(C)C[C@H](NC(=O)[C@H](Cc1ccc(O)cc1)NC(=O)[C@H](CCCCN)NC(=O)[C@H](CO)NC(=O)[C@H](Cc1ccc(O)cc1)NC(=O)[C@H](CC(=O)O)NC(=O)[C@H](CO)NC(=O)[C@@H](NC(=O)[C@H](Cc1ccccc1)NC(=O)[C@@H](NC(=O)CNC(=O)[C@H](CCC(N)=O)NC(=O)[C@H](CO)NC(=O)[C@@H](N)Cc1c[nH]cn1)[C@@H](C)O)[C@@H](C)O)C(=O)N[C@@H](CC(=O)O)C(=O)N[C@@H](CO)C(=O)N[C@@H](CCCNC(=N)N)C(=O)N[C@@H](CCCNC(=N)N)C(=O)N[C@@H](C)C(=O)N[C@@H](CCC(N)=O)C(=O)N[C@@H](CC(=O)O)C(=O)N[C@@H](Cc1ccccc1)C(=O)N[C@H](C(=O)N[C@@H](CCC(N)=O)C(=O)N[C@@H](Cc1c[nH]c2ccccc12)C(=O)N[C@@H](CC(C)C)C(=O)N[C@@H](CCCCNC(=O)CC[C@H](NC(=O)CC[C@H](NC(=O)COCCOCCNC(=O)COCCOCCNC(=O)CC[C@H](NC(=O)CCCCCCCCCCCCCCCCC(=O)O)C(=O)O)C(=O)O)C(=O)O)C(=O)N[C@@H](CC(N)=O)C(=O)N1CCC[C@H]1C(=O)O)C(C)C` [Example 85, N^ε27-[(4S)-4-carboxy-4-[[(4S)-4-carboxy-4-[[2-[2-[2-[[2-[2-[2-[[(4S)-4-carboxy-4-(17-carboxyheptadecanoylamino)butanoyl]amino]ethoxy]ethoxy]acetyl]amino]ethoxy]ethoxy]acetyl]amino]butanoyl]amino]butanoyl]-[Lys^27,Pro^29]-Glucagon], the pEC50 is 8.93.
